Where “and” joins values, the source holds several entries; their conditions need not be identical. Identical values can stand only once. Where only a bound is given, the exact number is not on record here.

One may read the IC50 as the point on the concentration scale where inhibition reaches its midpoint.

The assay deals with Nonstructural protein 3 (Zika virus, UniProt A0A024AXB9). In words: Functional biochemical assay to identify treatments for viral infectious disease that targets Zika NS2B-NS3 protease. Utilizing a direct enzyme activity measurement method, reading the fluorescence intensity is used to characterize the relative potency of inhibitors as IC50. More on the design: species or system PRVABC59.
Chain of Nonstructural protein 3 (A0A024AXB9 whole entry): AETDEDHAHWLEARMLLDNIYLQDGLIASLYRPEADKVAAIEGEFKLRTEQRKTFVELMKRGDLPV
Regarding `c1ccc2nc(SCc3cn4ccccc4n3)cnc2c1`, the IC50 was > 99.5 µM.

With `c1ccc(C2CCN(Cc3ccc4nccnc4c3)CC2)nc1`, the IC50 is > 99.5 µM.

As to `c1cc2sccc2c(N2CCN(Cc3ccc4cn[nH]c4c3)CC2)n1`, the IC50 was > 99.5 µM.

As for `O=C(O)c1sc2cccnc2c1Br`, the IC50 is > 99.5 µM.

With `Brc1cnn(C2CCN(Cc3csnn3)CC2)c1`, the IC50 was > 99.5 µM.

In the case of `[O-][S@@+](Cc1nc(-c2cccs2)no1)c1cccs1`, the IC50 was > 99.5 µM.

With `C[S@@+]([O-])c1nncn1Cc1ccc(Cl)s1`, the IC50 was > 99.5 µM.

As for `Cc1nnc(CSc2ncnc3sccc23)o1`, the IC50 was > 99.5 µM.

`c1nnc(SCCCSc2nncs2)s1`: the IC50 is > 99.5 µM.

In the case of `O=c1ccn(Cc2cc(=O)n3ccccc3n2)c2ccsc12`, the IC50 was > 99.5 µM.

`Brc1nc(Br)n(Cc2cscn2)n1`: the IC50 was > 99.5 µM.

With `Cn1ncnc1Sc1nc(C2CCCC2)ns1`, the IC50 was > 99.5 µM.

Consider `O=c1c2ccccc2nnn1CSc1nnc(-c2ccccc2)o1`, for which the IC50 is > 99.5 µM.

Turning to `NCc1cccc(NC(=O)c2cc(C3CC3)nc3ccc(Cl)cc23)c1`, the IC50 was > 99.5 µM.

`O=C(Nc1cc(Cl)cc(C(=O)Nc2ccnc([C@H]3CCCN3)n2)c1)OCc1ccccc1`: inhibition was half-maximal at 82.6 µM (IC50). That is a double-digit micromolar value.

Regarding `[O-][S@@+](Cc1ncccn1)c1ncccc1Br`, the IC50 is > 99.5 µM.

Turning to `NCc1cccc([C@H]2C[C@@H]2c2cc(Cl)cc(NC(=O)OCc3ccccc3)c2)c1`, the 50% inhibitory concentration (IC50) was 7.36 µM and 6.03 µM.

In the case of `Cn1cncc1COc1cccc([C@H](NC(=O)OCc2ccccc2)C(=O)Nc2cccc(CN)c2)c1`, half-maximal inhibition (IC50) was put at 32.6 µM.

On to `CS(=O)(=O)N(c1cc(Cl)cc(C(=O)Nc2cccc(CN)c2)c1)S(C)(=O)=O`, for which the concentration for half-maximal inhibition (IC50) is > 99.5 µM.

Turning to `Cc1cc(CN)cc(C)c1NS(=O)(=O)c1ccc(Oc2ccccc2Cl)cc1`, the IC50 is 81.3 µM.

Consider `N#Cc1ccc(OCCn2nnn(-c3ccccc3)c2=O)cc1`, for which the IC50 is > 99.5 µM.

With `NC1(c2cccc(NS(=O)(=O)c3ccc(Oc4ccccc4Cl)cc3)c2)CCOCC1`, the IC50 was > 99.5 µM.

Regarding `CCc1c(C(=O)Nc2cccc(CN)c2)c2cc(Cl)ccc2n1C`, the half-maximal inhibitory concentration (IC50) is > 99.5 µM.

Turning to `N#Cc1ccc(S(=O)(=O)CCn2nc(-c3ccco3)oc2=O)cc1`, the IC50 is > 99.5 µM.

For the compound `O=c1ccc(N2CCN(Cc3c[nH]c4ccccc34)CC2)c[nH]1`, the IC50 is > 99.5 µM.

Compound `NCc1cccc(NC(=O)c2cc(N)cc(Cl)c2)c1` yielded an IC50 of 39.6 µM.

For the compound `c1cncc(CN2CC[C@H](NCc3c[nH]c4ccccc34)C2)c1`, the IC50 is > 99.5 µM.

As to `CCOc1cccc(-c2ccc(S(=O)(=O)Nc3ccc(Cl)cc3C(=O)O)cc2C)c1`, the IC50 came out at 11.1 µM.

On to `NC1CN(c2ccc(NS(=O)(=O)c3ccc(Oc4ccccc4Cl)cc3)cn2)C1`, for which the IC50 is > 99.5 µM.

The compound `NCc1cccc(NC(=O)[C@H](NC(=O)OCc2ccccc2)c2cccc(-c3ccnc(N)c3)c2)c1` gave an IC50 of 48.1 µM.

Regarding `Cc1cc(C(=O)Nc2cccc(CN)c2)n2nc(C(F)(F)F)cc2n1`, the IC50 was > 99.5 µM.

In the case of `CC(C)(C)OC(=O)NCc1cccc(NC(=O)C[C@H](N)c2ccc(OCc3ccccc3)c(Br)c2)c1`, the IC50 is > 99.5 µM.

Take `N[C@H]1CCCc2ccc(NC(=O)c3cc(Cl)cc(NC(=O)OCc4ccccc4)c3)cc21`: 12.1 µM corresponded to half-maximal inhibition (IC50).

Regarding `C[C@H]1CC[C@@](Cc2nc3ccccc3[nH]2)(C(=O)Nc2cccc(CN)c2)CC1`, the half-maximal inhibitory concentration (IC50) was > 99.5 µM.

With `NC1(c2cccc(NC(=O)c3cc(Cl)cc(NC(=O)OCc4ccccc4)c3)c2)CCOCC1`, the IC50 is > 99.5 µM.

As to `Cc1ccc(OCc2ccccc2Cl)c(C(=O)Nc2cccc(CN)c2)c1`, the half-inhibitory concentration (IC50) was 43.2 µM.

Take `CS(=O)(=O)Nc1cc(Cl)cc(C(=O)Nc2cccc(CN)c2)c1`: the IC50 was > 99.5 µM.

The compound `CCc1cc(NC(=O)OCc2ccccc2)cc(C(=O)Nc2cccc(CN)c2)c1` displayed an IC50 of 39.8 µM.

Compound `NCc1cc(Cl)cc(C(=O)Nc2cccc(C3CCNCC3)c2)c1` returned an IC50 of 25.8 µM. This IC50 is about 1.5-fold lower than that of the compound before.

As to `COc1ccc(-c2cccc([C@H](NC(=O)OCc3ccccc3)C(=O)Nc3cccc(CN)c3)c2)c(C#N)c1`, it took 11.2 µM to reach half-maximal inhibition (IC50).

Take `NCc1cccc(NC(=O)[C@H](NC(=O)OCc2ccccc2)c2cccc(-c3ccccn3)c2)c1`: half-maximal inhibition (IC50) required 82.4 µM. Against the preceding compound, the IC50 is about 7.4-fold higher.

For `NCc1cccc(NC(=O)[C@H]2CCc3nnc(-c4ccc(F)cc4)n3C2)c1`, the IC50 was > 99.5 µM.

Turning to `CC(C)(CNCc1c[nH]c2ccccc12)c1cccnc1`, the IC50 is > 99.5 µM.

Regarding `O=C(Nc1cc(Cl)cc(C(=O)Nc2cccc([C@H]3CCNC3)c2)c1)OCc1ccccc1`, the IC50 was 8.73 µM and 11.6 µM.

On to `NCc1cccc(NC(=O)c2cc(Cl)cc(NC(=O)NCc3ccccc3)c2)c1`, for which the IC50 stood at 2.1 µM.

In the case of `COc1ccc(F)cc1-c1ccc(S(=O)(=O)Nc2cc(Cl)cc(C(=O)O)c2)cc1`, the IC50 was > 99.5 µM.

Consider `CCCN(C)C(=O)Cn1ccnc(N2CC[C@H](CO)C2)c1=O`, for which the IC50 was > 99.5 µM.

Consider `NCc1ccc(NC(=O)[C@H]2[C@H]3CCCCC[C@H]3[C@H]2NC(=O)OCc2ccccc2)cc1`, for which the IC50 was found to be 36.6 µM.

Consider `O=C(Nc1cc(Cl)cc(C(=O)Nc2nc([C@H]3CCCN3)cc(=O)[nH]2)c1)OCc1ccccc1`, for which half-maximal inhibition (IC50) required 92 µM.

Take `Brc1cccc2cn(Cc3ncccn3)nc12`: the IC50 was > 99.5 µM.

As for `c1ccc2[nH]c(CC3CCN(Cc4nccs4)CC3)nc2c1`, the IC50 is > 99.5 µM.

Turning to `NCc1cccc(NC(=O)[C@@H]2C[C@@H](O)CN2C(=O)C23CC4CC(CC(C4)C2)C3)c1`, the IC50 is > 99.5 µM.

With `Cn1c(Sc2nc3ccccc3o2)nc2sccc2c1=O`, the IC50 is > 99.5 µM.

`O=C(Nc1cc(Cl)cc(C(=O)Nc2cccc(CO)c2)c1)OCc1ccccc1`: the IC50 is > 99.5 µM.

`NCc1cccc(NC(=O)c2cc3c(F)cc(F)c(F)c3[nH]2)c1` yielded an IC50 of 42.4 µM.

In turn, `NCc1cccc(NC(=O)[C@H](NC(=O)OCc2ccccc2)c2cccc(-c3ccc4c(c3)CC(=O)N4)c2)c1` registered a half-maximal inhibitory concentration (IC50) of 8.83 µM.

For `Cc1ccc(CN)cc1-c1cccc([C@H](NC(=O)OCc2ccccc2)C(=O)Nc2cccc(CN)c2)c1`, 18.2 µM corresponded to half-maximal inhibition (IC50).

On to `NCc1ccc(NS(=O)(=O)c2ccc(Oc3ccccc3Cl)cc2)cc1Cl`, for which the concentration for half-maximal inhibition (IC50) is > 99.5 µM.

Turning to `O=C(NCc1ccco1)c1csc(Br)c1`, the IC50 is > 99.5 µM.

Consider `O=C(NCc1nccs1)c1sccc1Cl`, for which the IC50 is > 99.5 µM.

As to `N[C@H](CO)c1cccc(NC(=O)c2cc(Cl)cc(NC(=O)OCc3ccccc3)c2)c1`, half-maximal inhibition (IC50) required 57.4 µM. This counts as double-digit micromolar.

Consider `CCNC(=O)Nc1cc(Cl)cc(C(=O)Nc2cccc(CN)c2)c1`, for which half-maximal inhibition (IC50) required 0.659 µM.

Take `NC1CN(c2ncccc2NS(=O)(=O)c2ccc(Oc3ccccc3Cl)cc2)C1`: the IC50 is > 99.5 µM.

Regarding `NC1(c2cccc(NC(=O)c3cc(Cl)cc(NC(=O)OCc4ccccc4)c3)c2)CC1`, the IC50 is > 99.5 µM.

As to `NCc1cccc(Oc2ccc(S(=O)(=O)Nc3ccc(Cl)cc3C(=O)NCC(F)(F)F)cc2)c1`, the IC50 was > 99.5 µM.

In the case of `NC(=O)c1cccc(NC(=O)c2cc(Cl)cc(NC(=O)OCc3ccccc3)c2)c1`, the IC50 is > 99.5 µM.

For the compound `O=c1ccc(-n2cncn2)nn1CC=Cc1ccccc1`, the IC50 was > 99.5 µM.

Consider `CCSc1nnc(SCCn2nc3ccccn3c2=O)s1`, for which the IC50 was > 99.5 µM.

On to `O=c1ccccn1-c1ncc(Br)cn1`, for which the IC50 was > 99.5 µM.

`C=C(C)c1cc(NC(=O)OCc2ccccc2)cc(C(=O)Nc2cccc(CN)c2)c1` gave a half-maximal inhibitory concentration (IC50) of 14.8 µM.

Consider `O=C(Cn1ccnc(N2CC[C@H](CO)C2)c1=O)N1CCOCC1`, for which the IC50 is > 99.5 µM.

In the case of `O=c1c2cccn2cnn1Cc1cnc(Cl)s1`, the IC50 was > 99.5 µM.

As to `O=c1c2ccccc2ncn1CCCn1cnc2ccccc2c1=O`, the IC50 was > 99.5 µM.

In the case of `NC1(c2cc(C(F)(F)F)ccc2NS(=O)(=O)c2ccc(Oc3ccccc3Cl)cc2)CC1`, the IC50 was > 99.5 µM.

Regarding `NCc1cccc(NC(=O)[C@H](NC(=O)OCc2ccccc2)c2ccc(OCc3ccccc3)c(Br)c2)c1`, the IC50 turned out to be 5.07 µM.

Consider `NCCc1cccc(NC(=O)[C@H]2[C@H]3CCCCC[C@H]3[C@H]2NC(=O)OCc2ccccc2)c1`, for which the IC50 worked out at 7.87 µM.

The compound `NCc1cccc(CCc2cc(Cl)cc(NC(=O)OCc3ccccc3)c2)c1` yielded an IC50 of 9.6 µM.

In the case of `COC(=O)c1cc2scc(Br)c2[nH]1`, the IC50 is > 99.5 µM.

For the compound `NCCOc1ccnc(NS(=O)(=O)c2ccc(Oc3ccccc3Cl)cc2)c1`, the IC50 is > 99.5 µM.

Consider `C[C@@H](NCc1c[nH]c2ccccc12)c1cscn1`, for which the IC50 is > 99.5 µM.

Take `NCc1cccc(NC(=O)C[C@H](CC(N)=O)c2ccc(F)cc2)c1`: the IC50 was > 99.5 µM.

Regarding `N[C@H]1CCc2ccc(NC(=O)c3cc(Cl)cc(NC(=O)OCc4ccccc4)c3)cc21`, half-maximal inhibition (IC50) was put at 8.42 µM.

As for `CS(=O)(=O)Nc1c(Cl)cc(Cl)cc1C(=O)Nc1cccc(CN)c1`, the IC50 is > 99.5 µM.

For `NCc1cccc(NC(=O)c2cc(Br)cnc2OCC2CC2)c1`, the IC50 was > 99.5 µM.

With `COc1ccc(COc2ccc([C@H](NC(=O)OCc3ccccc3)C(=O)Nc3cccc(CN)c3)cc2)cn1`, inhibition was half-maximal at 38.8 µM (IC50).

With `NC1(c2ccccc2NS(=O)(=O)c2ccc(Oc3ccccc3Cl)cc2)CC1`, the IC50 is > 99.5 µM.

As to `c1csc(CSc2nnc(Cn3cncn3)o2)c1`, the IC50 was > 99.5 µM.

Take `N[C@H]1CCN(c2ccc(NS(=O)(=O)c3ccc(Oc4ccccc4Cl)cc3)cc2)C1`: half-maximal inhibition (IC50) was put at 37.3 µM. In other words, the double-digit micromolar range.

`NCc1cccc(NC(=O)[C@H](NC(=O)OCc2ccccc2)c2ccc(OCC3CCC3)cc2)c1` yielded an IC50 of 28.5 µM. The IC50 values of the last two compounds are within 1.5-fold of each other.

Regarding `OC[C@H](Cc1cccnc1)NCc1c[nH]c2ccccc12`, the concentration for half-maximal inhibition (IC50) was > 99.5 µM.

`CC(C)c1nc2c(C(=O)Nc3cccc(CN)c3)cccc2[nH]1` registered an IC50 of 14.3 µM.

`COc1cc(C(=O)Nc2cccc(CN)c2)cc(NC(=O)OCc2ccccc2)c1Cl` showed an IC50 of 38.1 µM.

On to `c1csc(-c2nnc(Sc3ncnc4sccc34)o2)c1`, for which the 50% inhibitory concentration (IC50) is > 99.5 µM.

For `NC1(c2cccc(NS(=O)(=O)c3ccc(Oc4ccccc4Cl)cc3)c2)CCC1`, the IC50 was > 99.5 µM.

In the case of `NCc1cccnc1NS(=O)(=O)c1ccc(Oc2ccccc2Cl)cc1`, the IC50 was > 99.5 µM.

In the case of `N[C@H]1CCOc2ccc(NC(=O)c3cc(Cl)cc(NC(=O)OCc4ccccc4)c3)cc21`, the IC50 is 10.6 µM.

Consider `O=C(O)C[C@H](NC(=O)OCc1ccccc1)c1ccc(OCc2ccccc2)c(Br)c1`, for which the IC50 was > 99.5 µM.

The record behind these values is ChEMBL document CHEMBL5604062, “ASAP - ZIKV NS2B-NS3 protease fluorescence dose response” (2024).
